Test results: patent US12582644B2, “O-GlcNAc transferase inhibitors and uses thereof” (President and Fellows of Harvard College, priority 2018, dated 2026)
In brackets after ≈: the same amount, converted by molar mass. Blank lines part the entries; values can stand above or below the compound they belong to.

Tests used:
full length OGT = molecular target: T1, full length OGT (Homo sapiens, UniProt O15294); assay: Dissociation constants by microscale thermophoresis (MST); conditions: read-out: Binding affinity (Kd ± s.d.), binding of compounds to OGT
T1 sequence (O15294 1-1046): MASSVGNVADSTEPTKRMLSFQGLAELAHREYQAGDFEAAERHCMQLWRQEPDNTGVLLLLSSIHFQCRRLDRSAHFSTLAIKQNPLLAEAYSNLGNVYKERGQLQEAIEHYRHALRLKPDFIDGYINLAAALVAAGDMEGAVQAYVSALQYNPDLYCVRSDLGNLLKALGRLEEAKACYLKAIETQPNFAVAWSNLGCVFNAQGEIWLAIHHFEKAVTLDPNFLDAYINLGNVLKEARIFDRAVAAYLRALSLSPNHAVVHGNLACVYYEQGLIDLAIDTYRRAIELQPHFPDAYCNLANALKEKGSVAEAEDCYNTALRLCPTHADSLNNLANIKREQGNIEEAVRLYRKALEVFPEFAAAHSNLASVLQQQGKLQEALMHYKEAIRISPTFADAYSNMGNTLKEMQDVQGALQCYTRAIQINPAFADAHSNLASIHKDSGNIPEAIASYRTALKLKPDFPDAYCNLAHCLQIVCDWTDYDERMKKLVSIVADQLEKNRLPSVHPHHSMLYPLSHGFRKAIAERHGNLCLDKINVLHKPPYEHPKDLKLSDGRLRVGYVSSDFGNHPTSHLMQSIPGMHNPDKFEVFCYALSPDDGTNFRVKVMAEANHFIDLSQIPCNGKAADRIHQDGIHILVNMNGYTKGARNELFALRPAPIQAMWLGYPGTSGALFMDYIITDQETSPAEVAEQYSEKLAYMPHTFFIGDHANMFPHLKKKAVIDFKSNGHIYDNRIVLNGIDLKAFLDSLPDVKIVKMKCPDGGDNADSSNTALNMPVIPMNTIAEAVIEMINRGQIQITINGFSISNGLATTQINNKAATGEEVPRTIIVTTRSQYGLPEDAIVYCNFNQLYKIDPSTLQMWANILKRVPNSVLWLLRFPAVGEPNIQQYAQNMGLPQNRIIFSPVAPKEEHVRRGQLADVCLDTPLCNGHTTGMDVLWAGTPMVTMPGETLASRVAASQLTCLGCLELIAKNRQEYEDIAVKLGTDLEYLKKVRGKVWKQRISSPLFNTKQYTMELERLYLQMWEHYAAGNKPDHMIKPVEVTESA
Protocol: Excess NHS-ester was removed with a Zeba™ Spin desalting column (ThermoFisher). A range of concentrations of the ligand were prepared in which the concentration of labeled OGT was kept constant at 5 nM, and all experiments were performed in MST running buffer (PBS, pH 7.4, 0.05% Tween-20, 1 mM DTT, 2% glycerol, 0.5% DMSO). Mixtures were incubated for at least 10 minutes to facilitate binding before MST experiments. MST experiments were carried out using 60% LED power and 20% MST power in standard capillaries (from NanoTemper Technologies). […] Kd values were calculated using a user-defined mass action equation in the GraphPad Prism 6 software (GraphPad Software, Inc.).

OGT = molecular target: T2, OGT (Homo sapiens, UniProt O15294); conditions: SPR, value in parentheses; read-out: Binding affinity (Kd ± s.d.) determined by SPR; cited from earlier work
T2 sequence (O15294 1-1046): T1 sequence (O15294 1-1046)

[1] = test system: global O-GlcNAcylation in PC3 cells; assay: Western blotting for O-GlcNAc levels in PC3 cells; conditions: PC3 prostate cancer cells
Protocol: (§3) Cells were plated and grown in their respective media until they reached a confluency of 60-80%. […] For all other cell lines, compounds were dissolved in 0.2 mL of fresh media and then added directly to the cells.
(§4) Cell lysates for from HEK293T, LNCaP, HCT116 and PC3 cells were prepared for western blotting in the following manner, and all the steps were conducted at 4° C. […] Samples were transferred to a nitrocellulose membrane (Bio-Rad). Membranes were blocked with 5% bovine serum albumin in TBST and probed with primary antibodies overnight at 4° C. and for 1 h at RT with peroxidase conjugated secondary antibodies, as indicated in each figure. Blots were developed using enhanced chemiluminescence (Pierce) and visualized with an Amersham Imager 600.

[2] = test system: OGT's detained intron (intron 4) in HEK293T cells; assay: Quantitative PCR of OGT detained intron splicing; type: cell-based; conditions: 10 μM, 2-hour treatment
Protocol: Total RNA was harvested directly from tissue culture plates using Trizol (Life Technologies) according to the manufacturer's directions. In all experiments, total RNA was treated with Turbo DNase (Life Technologies) to remove any residual DNA contamination, extracted in acid-buffered phenol/chloroform, and ethanol-precipitated. Reverse transcription was performed using 2 μg of DNase-treated total RNA in a 20 μL reaction following the manufacturer's protocol (SuperScript III, Life Technologies) for 1 h at 50° C. cDNA reactions were […] diluted 1:10, and 1 μL was used in each PCR reaction. Real-time qRT-PCR was performed using PowerUp SYBR Green (Life Technologies) on a StepOne-Plus Real-Time PCR System (Applied Biosystems).

HCT116 cells = assay: Cell viability and live-cell imaging (IncuCyte confluence, CellTiter-Glo); type: cell-based; conditions: for cellular confluency relative to DMSO control: HCT116, 40 μM, 96 hours; for cell growth: HCT116, 96 hours, 10 or 40 μM
Protocol: (§1) HCT116 cells were plated into 384-well plate one day prior to treatment with compounds (300 cells per well). Compounds were dispensed using a D300e Digital Dispenser (Tecan). Cells were imaged every 3 hours using an IncuCyte ZOOM instrument (Sartorius) to generate growth curves. After four days of treatment, cell viability was assessed using the CellTiter-Glo® Luminescent Cell Viability Assay (Promega). Luminescence signal was recorded using the GloMax® Explorer System (Promega). For Cytotoxicity, HEK293T cells were plated into a 96-well plate two days prior to treatment with compounds at 80% confluency. The number of dead cells were assessed by CellTox™ Green Cytotoxicity Assay (Promega).

[3] = test system: HCF-1 cleavage in HEK293T cells; assay: HCF-1 cleavage in HEK293T cells (Western blotting); type: cell-based; conditions: for uncleaved HCF-1: over 96 hours
Text: (§2) In addition to glycosylating Ser/Thr residues of proteins, OGT catalyzes cleavage of the cell-cycle regulator HCF-1 by glycosylating a glutamate in the HCF-1 cleavage sequence.^4c,7 An OGT inhibitor would be expected to block cleavage. Indeed, a decrease in HCF-1 cleavage products and the appearance of uncleaved HCF-1 in cells treated with 1b, 2b or 4b was observed (FIGS. 2E, 16). Because OGT knockdown is known to decrease cell proliferation,^8 the effects of 1b, 2b, and 4b on cell growth in culture over 96 hours were also monitored. Although there was no evidence of apoptosis, reduced growth of cells was observed over time (FIG. 17), consistent with the knockdown results.

HEK293T cells [4] = assay: CellTox Green Cytotoxicity Assay; type: cell-based; conditions: 24 hours, 0-50 μM
Protocol: as §1

[5] = test system: global O-GlcNAcylation in HCT116 cells; assay: Western blotting for global O-GlcNAc levels in HCT116 cells; type: cell-based; conditions: for O-GlcNAc levels, dose dependence: HCT116, 20-80 μM, 4 hours or 24 hours
[6] = test system: HCF-1 cleavage in HCT116 cells; assay: HCF-1 cleavage in HCT116 cells (Western blotting); type: cell-based; conditions: HCT116, 20-80 μM, 24 hours
Text: as §2

[7] = test system: global O-GlcNAcylation in LNCaP cells; assay: Western blotting for O-GlcNAc levels in LNCaP cells; conditions: LNCaP prostate cancer cells
Protocol: as §3, §4

[8] = test system: global O-GlcNAcylation in HEK293T cells; assay: Western blotting for global O-GlcNAc levels in HEK293T cells; type: cell-based; conditions: for protein O-GlcNAcylation: from 2 hours (FIG. 13E); for global O-GlcNAc levels, dose dependence: 4 hours (FIG. 13C); for O-GlcNAc levels after prolonged treatment: 96 hours (FIG. 13E)
Kinetic solubility = type: physicochemical; conditions: kinetic from dmso stock
[9] = Rat liver microsome stability assay; type: in vitro ADME; conditions: rat liver microsomes; read-out: RLM Stability (t1/2)
PAMPA assay = type: in vitro ADME; conditions: read-out: Permeability
HEK293T cells [10] = assay: Quantitative proteomics / protein abundance in HEK293T cells; conditions: 20 μM
Protocol: At the indicated time point, cells were lysed in lysis buffer (2% SDS 50 mM Tris-HCl and 150 mM NaCl), sonicated (BioDisruptor) and protein concentration determined with the BCA assay. Samples were reduced with 5 mM DTT for 45 mins at 60° C., then alkylated with 14 mM iodoacetamide for 45 mins at room temperature in the dark. Then 100 μg of protein was precipitated using chloroform/methanol.^32 Protein pellets were resuspended in 200 mM HEPES pH 8.5 to 1 mg/mL. Proteins were digested with LysC (Wako) (substrate:enzyme=100) overnight at 37° C. and then with sequencing grade Trypsin (Promega) (substrate:enzyme=100) for 6 hours at 37° C. The resulting peptide solutions were then labelled with TMT 10/11-plex reagents (Thermo Scientific) for 1.5 hours at room temperature. Reactions were stopped by addition of 5% hydroxylamine for 30 minutes. Equal amounts of peptide samples were combined, dried by vacuum centrifugation and desalted on a Waters C18 solid phase extraction Sep-Pak. TMT-labeled peptide samples were fractionated via basic-pH reverse-phase (BPRP) HPLC to 96 fractions and then consolidated to 12 fractions. These fractions were subsequently acidified with 1% formic acid, vacuum centrifuged to near dryness and desalted with C18 stagetips.^32 Dried peptides were resuspended in 5% acetonitrile/5% formic acid for LC-MS/MS processing. […]
Precursors for MS2/MS3 analysis were selected using a Top10 method. […] Following acquisition of each MS2 spectrum, an MS3 spectrum was collected using the recently described method in which multiple MS2 fragment ions were captured in the MS3 precursor population using isolation waveforms with multiple frequency notches.^33b MS3 precursors were fragmented by high energy collision-induced dissociation (HCD) and analyzed using the Orbitrap (NCE 65; AGC 1.5×10^5; maximum injection time 150 ms, resolution was 50,000 at 400 Th, isolation window 0.7 Da).
Mass spectra were processed using a SEQUEST-based pipeline^23 Spectra were converted to mzXML using a modified version of ReAdW.exe. […]

ncOGT = molecular target: T3, ncOGT (Homo sapiens, UniProt O15294); assay: UDP-Glo Glycosyltransferase Assay (IC50/Ki); type: biochemical
T3 construct: Full length human OGT (ncOGT); made in house
T3 sequence (O15294 1-1046): T1 sequence (O15294 1-1046)
Protocol: Materials for this assay were obtained from Promega (catalog #V6961). […] Assays were performed in white, 384-well or H volume 96-well plates. Quantities in parenthesis apply to reactions run in H volume 96-well plates. Reaction volumes were 12 (24) μL. […] The quenched reactions were then mixed briefly by shaking at 600 rpm in a Thermomixer C, spun down at 400×g for 1 minute, and incubated for one hour at room temperature prior to reading luminescence, as per the manufacturer's guidelines. Data were analyzed by Microsoft Excel and Prism 7 (Graphpad). […] Each sample was run in duplicate, unless otherwise specified.

Kd (full length OGT): 16 ± 4 µM
SMILES: CC(=O)N[C@H]1[C@@H](OP(=O)(O)OP(=O)(O)OC[C@H]2O[C@@H](n3ccc(=O)[nH]c3=O)[C@H](O)[C@@H]2O)O[C@H](CO)[C@@H](O)[C@@H]1O [UDP-GlcNAc, reference compound]
Kd (OGT): 16.1 µM

SMILES: CCOC(=O)CCCOc1ccccc1[C@@H](NS(=O)(=O)c1ccc2[nH]c(=O)ccc2c1)C(=O)N(CC(=O)OCC)Cc1cccs1 [2b, Ethyl (R)-4-(2-(2-((2-ethoxy-2-oxoethyl)(thiophen-2-ylmethyl)amino)-2-oxo-1-((2-oxo-1,2-dihydroquinoline)-6-sulfonamido)ethyl)phenoxy)butanoate]
O-GlcNAc levels [1]: Decreases in O-GlcNAc levels | detained intron splicing of OGT transcript [2]: increased detained intron splicing | cellular confluency relative to DMSO control (HCT116 cells): confluency is reduced | cell growth (HCT116 cells): reduced cell growth compared with the control | HCF-1 cleavage ([3]; 20 μM, 48 hours): blocked HCF-1 cleavage | uncleaved HCF-1 [3]: time dependent increase in uncleaved HCF-1 | cytotoxic cell death (HEK293T cells [4]): did not result in cytotoxic cell death | O-GlcNAc levels, dose dependence [5]: dose dependent decreases in O-GlcNAc levels | global O-GlcNAc levels, comparison with 1b ([5]; HCT116, 24-hour treatment, 20 μM (FIG. 15B)): more effective than 1b | HCF-1 cleavage, 2b compared with 1b [6]: more effective at reducing HCF-1 cleavage | O-GlcNAc levels [7]: Decreases in O-GlcNAc levels | ability to inhibit global O-GlcNAcylation, ranking ([8]; HCT116, HEK293T, PC3, and LNCaP cells): best activity | protein O-GlcNAcylation ([8]; HEK293T, 20 μM): decreased protein O-GlcNAcylation in as little as 2 hours | global O-GlcNAc levels, dose dependence ([8]; HEK293T): dose dependent decreases in global O-GlcNAc levels | O-GlcNAc levels after prolonged treatment ([8]; HEK293T): remain very low

SMILES: CCOC(=O)CN(Cc1cccs1)C(=O)[C@H](NS(=O)(=O)c1cc2ccc(=O)[nH]c2cc1Cl)c1ccccc1OC [drawing 86]
solubility (Kinetic solubility): 19 µg/mL (≈ 31.5 µM) | half-life [9]: 1.9 min | Papp (PAMPA assay): 540 ×10⁻⁶ cm/s

SMILES: COC(=O)CN(Cc1cccs1)C(=O)[C@H](NS(=O)(=O)c1ccc2[nH]c(=O)ccc2c1)c1ccccc1OC [1b, Methyl (R)—N-(2-(2-methoxyphenyl)-2-((2-oxo-1,2-dihydroquinoline)-6-sulfonamido)acetyl)-N-(thiophen-2-ylmethyl)glycinate]
O-GlcNAc levels [1]: Decreases in O-GlcNAc levels | detained intron splicing of OGT transcript [2]: increased detained intron splicing | cellular confluency relative to DMSO control (HCT116 cells): confluency is reduced | cell growth (HCT116 cells): reduced cell growth compared with the control | uncleaved HCF-1 [3]: time dependent increase in uncleaved HCF-1 | cytotoxic cell death (HEK293T cells [4]): did not result in cytotoxic cell death | O-GlcNAc levels, dose dependence [5]: dose dependent decreases in O-GlcNAc levels | O-GlcNAc levels [7]: Decreases in O-GlcNAc levels | O-GlcNAc levels ([8]; HEK293T, 20 μM, 24 hours (FIG. 13B)): O-GlcNAc levels recover after 24 hours | protein O-GlcNAcylation ([8]; HEK293T, 20 μM): decreased protein O-GlcNAcylation in as little as 2 hours | global O-GlcNAc levels, dose dependence ([8]; HEK293T): dose dependent decreases in global O-GlcNAc levels | O-GlcNAc levels after prolonged treatment ([8]; HEK293T): recover | ability to inhibit global O-GlcNAcylation ([8]; short treatment times (<8 hr)): decent inhibitor | OGT level (Western blotting) (HEK293T cells [10]; 4 and 24 hours): an increase in OGT | changes in abundance of other proteins (off-target activity) (HEK293T cells [10]; 24 hr): Few significant changes | abundance of OGT and OGA (proteomics) (HEK293T cells [10]; time course 8, 16, 24 hours): reciprocal changes in the abundance of OGT and OGA

solubility (Kinetic solubility): 21.1 µg/mL (≈ 36.1 µM) | half-life [9]: 1.3 min | Papp (PAMPA assay): 511 ×10⁻⁶ cm/s | IC50 (ncOGT; UDP-Glo assay, 300 nM ncOGT, 40 μM UDP-GlcNAc): 1.8 µM | Ki (ncOGT; calculated from IC50 (UDP-Glo) by Cheng-Prusoff): 0.103 µM
SMILES: CCOC(=O)CN(Cc1cccs1)C(=O)[C@H](NS(=O)(=O)c1cc2ccc(=O)[nH]c2cc1C)c1ccccc1OC
